The results in this text go back to patent US8119633B2, “Substituted sulfonamide compounds” (Gruenenthal GmbH, priority 2007, dated 2012).

In test [1] the target is T1, human bradykinin receptor 1 (B1R) (Homo sapiens, UniProt P46663).
T1 construct: expressed in transfected cells; host or cells: CHO K1 cells
T1 sequence (P46663 1-353): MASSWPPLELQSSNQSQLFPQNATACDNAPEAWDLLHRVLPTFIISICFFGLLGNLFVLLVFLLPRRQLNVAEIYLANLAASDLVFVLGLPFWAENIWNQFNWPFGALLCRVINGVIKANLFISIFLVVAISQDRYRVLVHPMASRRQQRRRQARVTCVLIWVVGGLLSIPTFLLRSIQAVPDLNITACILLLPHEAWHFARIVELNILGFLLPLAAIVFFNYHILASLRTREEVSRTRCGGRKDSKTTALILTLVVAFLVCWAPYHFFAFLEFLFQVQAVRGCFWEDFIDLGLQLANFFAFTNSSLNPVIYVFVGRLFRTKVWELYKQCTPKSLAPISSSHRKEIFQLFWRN
Nature of the test: Functional study on the bradykinin receptor 1 (B1R), human: FLIPR Ca2+ influx assay. It counts as cell-based. Put shortly:
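CHO K1 cells stably expressing human B1R were loaded with Fluo-4, and Ca2+ fluorescence was read on FLIPR (ex 488/em 540 nm). Compound was added first (10 μM for % activation against Lys-Des-Arg9-bradykinin ≥0.5 nM). After 10-20 min, Lys-Des-Arg9-bradykinin was added at EC80 for % inhibition; IC50 came from concentration series, n=2-3, N≥2.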

In test [2] the target is T2, bradykinin receptor 1 (B1R) of the rat (Rattus norvegicus, UniProt P97583).
T2 construct: expressed in transfected cells; host or cells: CHO K1 cells
T2 sequence (P97583 1-337): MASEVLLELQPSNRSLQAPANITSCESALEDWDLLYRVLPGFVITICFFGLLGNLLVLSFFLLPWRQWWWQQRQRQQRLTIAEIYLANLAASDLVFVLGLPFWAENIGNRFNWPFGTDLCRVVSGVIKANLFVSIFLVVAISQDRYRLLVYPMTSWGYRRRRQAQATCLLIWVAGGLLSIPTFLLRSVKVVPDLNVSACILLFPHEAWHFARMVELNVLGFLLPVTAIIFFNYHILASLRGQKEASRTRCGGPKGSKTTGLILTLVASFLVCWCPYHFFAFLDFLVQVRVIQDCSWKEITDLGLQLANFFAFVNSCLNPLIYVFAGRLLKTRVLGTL
The test can be described thus: Functional study on the bradykinin receptor 1 (B1R), rat: FLIPR Ca2+ influx assay. Type of test: cell-based. In outline:
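CHO K1 cells stably expressing rat B1R, Fluo-4-loaded, read on FLIPR (ex 488/em 540 nm, peak fluorescence). Test substances added first (agonism vs 10 μM Des-Arg9-bradykinin), then after 10-20 min Des-Arg9-bradykinin at EC80; % inhibition and IC50 from concentration series, n=2-3, N≥2.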

In a further test the target is T3, human μ-opiate receptor (Homo sapiens, UniProt P35372).
T3 construct: purchased PerkinElmer Life Sciences, Zaventem, Belgium RB-HOM; host or cells: CHO-K1 cells (membrane preparation)
T3 sequence (P35372 whole entry): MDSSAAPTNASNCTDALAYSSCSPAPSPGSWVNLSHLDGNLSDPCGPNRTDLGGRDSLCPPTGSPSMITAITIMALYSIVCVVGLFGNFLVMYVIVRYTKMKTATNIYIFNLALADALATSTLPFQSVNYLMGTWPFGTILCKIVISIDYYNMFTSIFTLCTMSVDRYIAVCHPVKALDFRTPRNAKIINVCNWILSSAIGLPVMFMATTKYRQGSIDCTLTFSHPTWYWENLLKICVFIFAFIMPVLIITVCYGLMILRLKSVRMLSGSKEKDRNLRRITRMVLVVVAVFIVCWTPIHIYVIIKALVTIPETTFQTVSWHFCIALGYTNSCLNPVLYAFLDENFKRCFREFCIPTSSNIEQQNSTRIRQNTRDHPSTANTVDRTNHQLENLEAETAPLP
Nature of the test: Affinity for the human μ-opiate receptor ([3H]-naloxone displacement, SPA). The following applies: test substance 1 μmol/l, inhibition of specific [3H]-naloxone binding, CHO-K1 receptor membrane preparation. Here is the method: Studies of the Effectiveness of the Compounds According to the Invention Method for determining the affinity for the human μ-opiate receptor
The receptor affinity for the human μ-opiate receptor is determined in a homogeneous batch on microtitre plates. To this end, serial dilutions of the substances to be tested are incubated for 90 minutes at room temperature with a receptor membrane preparation (15-40 μg of protein/250 μl of incubation batch) of CHO-K1 cells, which express the human μ-opiate receptor (RB-HOM receptor membrane preparation from PerkinElmer Life Sciences, Zaventem, Belgium), in the presence of 1 nmol/l of the radioactive ligand [^3H]-naloxone (NET719, PerkinElmer Life Sciences, Zaventem, Belgium) and 1 mg of WGA-SPA beads (wheatgerm agglutinin SPA beads from Amersham/Pharmacia, Freiburg, Germany) in a total volume of 250 μl. The incubation buffer used is 50 mmol/l of Tris-HCl supplemented with 0.06 wt. % bovine serum albumin. In order to determine non-specific binding, 100 μmol/l of naloxone is additionally added. When the ninety-minute incubation time has ended, the microtitre plates are centrifuged off for 20 minutes at 1000 g and the radioactivity is measured in a β-counter (Microbeta-Trilux, PerkinElmer Wallac, Freiburg, Germany). The percentage displacement of the radioactive ligand from its binding to the human μ-opiate receptor at a concentration of the test substances of 1 μmol/l is determined and stated as the percentage inhibition of specific binding. On the basis of the percentage displacement by different concentrations of the test substances, IC50 inhibitory concentrations, which effect 50% displacement of the radioactive ligand, are calculated. Ki values for the test substances are obtained by conversion by means of the Cheng-Prusoff equation.

Where [3] appears, read: test substance 10 μM, CHO K1 cells transfected with human B1R, Lys-Des-Arg9-bradykinin at EC80, Ca2+ influx (Fluo-4, FLIPR).
Where [4] appears, read: test substance 10 μM, CHO K1 cells transfected with rat B1R, Des-Arg9-bradykinin at EC80, Ca2+ influx (Fluo-4, FLIPR).
Setting [5] is: test substance 10 μM, CHO K1 cells transfected with human B1R, Lys-Des-Arg9-bradykinin at EC80, Ca2+ influx (Fluo-4, FLIPR), read-out: B1R antagonism, human [10 μM] % inhibition.
[6] abbreviates: test substance 10 μM, CHO K1 cells transfected with rat B1R, Des-Arg9-bradykinin at EC80, Ca2+ influx (Fluo-4, FLIPR), read-out: B1R antagonism, rat [10 μM] % inhibition.

Read-outs that look alike come from different tables or passages of the source.

With “1-(4-(1-(4-methylpiperazin-1-yl)-3-phenylpropyl)piperidin-1-yl)-2-(1-(3-(trifluoromethyl)phenylsulfonyl)piperidin-2-yl)ethanone [Example 112]”, the “B1R antagonism, human [10 μM] % inhibition” value in test [1] (setting [3]) was 90%. Further, the “B1R antagonism, rat [10 μM] % inhibition” value in test [2] (setting [4]) turned out to be 61%. Further, the “μ-Opioid receptor [1 μM] % inhibition” value on human μ-opiate receptor amounted to 28%.

For “3-(1-(4-chloro-2,5-dimethylphenylsulfonyl)piperidin-2-yl)-1-(4-((4-methyl-piperazin-1-yl)(phenyl)methyl)piperidin-1-yl)propan-1-one [Example 122]”, the “B1R antagonism, human [10 μM] % inhibition” value in test [1] (setting [3]) is 98%. Also, the “B1R antagonism, rat [10 μM] % inhibition” value in test [2] (setting [4]) is 40%. For the same compound, the “μ-Opioid receptor [1 μM] % inhibition” value on human μ-opiate receptor came to 47%.

As to “4-(Dimethylaminophenylmethyl)piperidin-1-carboxylic acid {3-[(4-methoxy-2,3,6-trimethylbenzenesulfonyl)methylamino]propyl}amide [Example 4]”, in test [1] (setting [3]), the “B1R antagonism, human [10 μM] % inhibition” value worked out at 54.8%. Further, the “B1R antagonism, rat [10 μM] % inhibition” value in test [2] (setting [4]) stood at 95%. At human μ-opiate receptor, the “μ-Opioid receptor [1 μM] % inhibition” value turned out to be 100%.

As a reminder, the inhibition is the change of the read-out against control, counted positive when it falls. `CN(C)C(c1ccc(F)cc1)C1CCC(CNC(=O)c2ccccc2N(C)S(=O)(=O)c2ccc(Cl)c(Cl)c2)CC1` (stereo not drawn) [Example 40, 2-[(3,4-dichloro-benzenesulfonyl)-methyl-amino]-N-{4-[dimethylamino-(4-fluoro-phenyl)-methyl]-cyclohexylmethyl}-benzamide]: the inhibition at 10 µM was found to be 17.1% in test [1] (setting [5]) and 20% in test [2] (setting [6]).

Take `CN(C)C(c1ccc(Cl)cc1)C1CCC(CNC(=O)c2ccccc2N(C)S(=O)(=O)c2ccc(Cl)c(Cl)c2)CC1` (stereo not drawn) [Example 41, N-{4-[(4-chloro-phenyl)-dimethylamino-methyl]-cyclohexylmethyl}-2-[(3,4-dichloro-benzenesulfonyl)-methyl-amino]-benzamide]: the results for the inhibition at 10 µM in test [1] (setting [5]) and in test [2] (setting [6]) were 22% and 25%, respectively.

As for `CN(C)C(c1ccc(Cl)cc1)C1CCC(CCNC(=O)c2ccccc2N(C)S(=O)(=O)c2ccc(Cl)c(Cl)c2)CC1` (stereo not drawn) [Example 43, N-(2-{4-[(4-chloro-phenyl)-dimethylamino-methyl]-cyclohexyl}-ethyl)-2-[(3,4-dichloro-benzenesulfonyl)-methyl-amino]-benzamide], the figures for the inhibition at 10 µM in test [1] (setting [5]) and in test [2] (setting [6]) were 28.9% and 11%, respectively.

For the compound `CN(C)C(c1cccc(F)c1)C1CCC(CCNC(=O)c2ccccc2N(C)S(=O)(=O)c2ccc(Cl)c(Cl)c2)CC1` (stereo not drawn) [Example 44, 2-[(3,4-dichloro-benzenesulfonyl)-methyl-amino]-N-(2-{4-[dimethylamino-(3-fluoro-phenyl)-methyl]-cyclohexyl}-ethyl)-benzamide], the inhibition at 10 µM in test [1] (setting [5]) worked out at 46.5%; in test [2] (setting [6]), 18%.

Turning to `CN(C)C(c1ccc(F)cc1)C1CCC(CCNC(=O)c2ccccc2N(C)S(=O)(=O)c2ccc(Cl)c(Cl)c2)CC1` (stereo not drawn) [Example 45, 2-[(3,4-dichloro-benzenesulfonyl)-methyl-amino]-N-(2-{4-[dimethylamino-(4-fluoro-phenyl)-methyl]-cyclohexyl}-ethyl)-benzamide], the results for the inhibition at 10 µM in test [1] (setting [5]) and in test [2] (setting [6]) were 75.7% and 26%, respectively.

For the compound `O=C1NCCN(S(=O)(=O)c2ccc(Cl)cc2Cl)C1CC(=O)N1CCC(C(c2ccccc2)N2CCOCC2)CC1` (stereo not drawn) [Example 62, 4-(2,4-dichloro-benzenesulfonyl)-3-{2-[4-(morpholin-4-yl-phenyl-methyl)piperidin-1-yl]-2-oxo-ethyl}-piperazin-2-one], the inhibition at 10 µM in test [2] (setting [6]) was 27%. Further, the inhibition at 1 µM on human μ-opiate receptor (read-out: μ-Opioid receptor [1 μM] % inhibition) is 4%.

Take `CN(C)C(c1ccccc1)C1CCC(NC(=O)C2Cc3ccccc3N2S(=O)(=O)c2ccc(Cl)c(Cl)c2)CC1` (stereo not drawn) [Example 91, 1-(3,4-dichlorophenylsulfonyl)-N-(4-((dimethylamino)(phenyl)methyl)cyclohexyl)indoline-2-carboxamide]: the inhibition at 10 µM in test [1] (CHO-K1, read-out: B1R antagonism, human [10 μM] % inhibition) was 17.8%; in test [2] (CHO-K1, read-out: B1R antagonism, rat [10 μM] % inhibition), 8%.

As for `CN(C)C(c1cccc(F)c1)C1CCC(NC(=O)C2Cc3ccccc3N2S(=O)(=O)c2ccc(Cl)c(Cl)c2)CC1` (stereo not drawn) [Example 92, 1-(3,4-dichlorophenylsulfonyl)-N-(4-((dimethylamino)(3-fluorophenyl)methyl)cyclohexyl)indoline-2-carboxamide], the inhibition at 10 µM is 26% in test [1] (setting [5]) and -13% in test [2] (setting [6]).

`CN(C)C(CCc1ccccc1)C1CCC(NC(=O)C2Cc3ccccc3N2S(=O)(=O)c2ccc(Cl)c(Cl)c2)CC1` (stereo not drawn) [Example 93, 1-(3,4-dichlorophenylsulfonyl)-N-(4-(1-(dimethylamino)-3-phenylpropyl)cyclohexyl)indoline-2-carboxamide]: the values for the inhibition at 10 µM in test [1] (setting [5]) and in test [2] (setting [6]) were 15.5% and -24%, respectively.

Take `CN(C)C(c1ccccc1)C1CCC(CNC(=O)C2Cc3ccccc3N2S(=O)(=O)c2ccc(Cl)c(Cl)c2)CC1` (stereo not drawn) [Example 95, 1-(3,4-dichlorophenylsulfonyl)-N-((4-((dimethylamino)(phenyl)methyl)cyclohexyl)methyl)indoline-2-carboxamide]: the inhibition at 10 µM in test [1] (setting [5]) is 18.6%; in test [2] (setting [6]), -15%.

On to `CN(C)C(CCc1ccccc1)C1CCC(CCNC(=O)C2Cc3ccccc3N2S(=O)(=O)c2ccc(Cl)c(Cl)c2)CC1` (stereo not drawn) [Example 97, 1-(3,4-dichlorophenylsulfonyl)-N-(2-(4-(1-(dimethylamino)-3-phenylpropyl)cyclohexyl)ethyl)indoline-2-carboxamide], for which the inhibition at 10 µM in test [1] (setting [5]) came to 16%; in test [2] (setting [6]), 11%.

Turning to `CN(C)C(c1ccccc1)C1CCC(CCNC(=O)Cc2ccccc2N(C)S(=O)(=O)c2ccc(Cl)c(Cl)c2)CC1` (stereo not drawn) [Example 98, 2-(2-(3,4-dichloro-N-methylphenylsulfonamido)phenyl)-N-(2-(4-((dimethylamino)(phenyl)methyl)cyclohexyl)ethyl)acetamide], the inhibition at 10 µM is 66.8% in test [1] (setting [5]) and -8% in test [2] (setting [6]).

`CN(C)C(CCc1ccccc1)C1CCC(CCNC(=O)Cc2ccccc2N(C)S(=O)(=O)c2ccc(Cl)c(Cl)c2)CC1` (stereo not drawn) [Example 99, 2-(2-(3,4-dichloro-N-methylphenylsulfonamido)phenyl)-N-(2-(4-(1-(dimethylamino)-3-phenylpropyl)cyclohexyl)ethyl)acetamide]: the results for the inhibition at 10 µM in test [1] (setting [5]) and in test [2] (setting [6]) were 83.3% and -7%, respectively.

Regarding “N-(3-(4-((4-fluorophenyl)(4-methylpiperazin-1-yl)methyl)piperidin-1-yl)-3-oxo-1-phenylpropyl)naphthalene-2-sulfonamide [Example 117]”, on human μ-opiate receptor, the “μ-Opioid receptor [1 μM] % inhibition” value worked out at 47%.
